Assay results reported in patent publication US20170190705A1, “Compositions and Methods for Inhibiting BMP” (THE BRIGHAM AND WOMAN'S HOSPITAL, INC., priority 2014, published 2017).

Experiments:
Format in all cases: biochemical
[1] = biological target: T1, MER (Homo sapiens, UniProt Q12866); experiment: Kinome profiling MER; conditions: read-out: Inhibitory activity MER; for inhibition at 0.1 µM: 100 nM
T1 sequence (Q12866 21-999): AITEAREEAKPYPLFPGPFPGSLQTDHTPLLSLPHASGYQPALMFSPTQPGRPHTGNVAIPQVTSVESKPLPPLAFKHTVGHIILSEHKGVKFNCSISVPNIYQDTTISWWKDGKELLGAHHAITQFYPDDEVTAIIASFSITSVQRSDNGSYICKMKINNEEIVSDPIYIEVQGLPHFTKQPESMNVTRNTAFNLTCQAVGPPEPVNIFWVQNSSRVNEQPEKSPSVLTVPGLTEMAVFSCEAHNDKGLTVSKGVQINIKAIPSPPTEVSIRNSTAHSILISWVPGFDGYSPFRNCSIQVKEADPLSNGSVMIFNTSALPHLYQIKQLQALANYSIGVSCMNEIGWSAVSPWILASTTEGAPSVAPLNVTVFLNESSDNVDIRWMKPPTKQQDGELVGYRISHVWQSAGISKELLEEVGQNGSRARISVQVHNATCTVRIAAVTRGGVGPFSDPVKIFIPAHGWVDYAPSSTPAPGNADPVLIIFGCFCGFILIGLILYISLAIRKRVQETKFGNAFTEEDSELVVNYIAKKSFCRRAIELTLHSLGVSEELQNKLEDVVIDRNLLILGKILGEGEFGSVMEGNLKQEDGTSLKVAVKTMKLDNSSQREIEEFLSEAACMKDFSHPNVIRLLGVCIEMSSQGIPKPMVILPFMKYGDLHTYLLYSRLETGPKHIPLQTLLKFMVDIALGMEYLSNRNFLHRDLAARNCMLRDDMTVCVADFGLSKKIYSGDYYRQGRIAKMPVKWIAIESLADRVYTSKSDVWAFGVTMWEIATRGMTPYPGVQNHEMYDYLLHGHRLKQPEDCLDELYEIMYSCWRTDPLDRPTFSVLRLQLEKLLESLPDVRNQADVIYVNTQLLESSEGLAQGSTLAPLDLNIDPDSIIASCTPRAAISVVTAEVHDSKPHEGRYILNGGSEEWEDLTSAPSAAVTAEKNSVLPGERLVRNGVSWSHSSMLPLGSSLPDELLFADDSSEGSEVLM
Protocol: (§1) . The kinome-wide selectivity was determined following the methods previously reported by Mohedas et al., ACS Chem Biol 2013, 8, 1291-1302 and Sanvitale et al., PLoS One 2013, 8, e62721.

[2] = biological target: SRMS (Homo sapiens, UniProt Q9H3Y6); experiment: Kinome profiling SRMS; conditions: read-out: Inhibitory activity SRMS; for inhibition at 0.1 µM: 100 nM
Protocol: as §1

[3] = biological target: CDK6/cyclinD3 (Homo sapiens, UniProt Q00534); experiment: Kinome profiling CDK6/cyclinD3; conditions: read-out: Inhibitory activity CDK6/cyclinD3; for inhibition at 0.1 µM: 100 nM
Protocol: as §1

[4] = biological target: IRR (Homo sapiens, UniProt P14616); experiment: Kinome profiling IRR; conditions: read-out: Inhibitory activity IRR; for inhibition at 0.1 µM: 100 nM
Protocol: as §1

[5] = biological target: T2, TSSK2 (Homo sapiens, UniProt Q96PF2); experiment: Kinome profiling TSSK2; conditions: read-out: Inhibitory activity TSSK2; for inhibition at 0.1 µM: 100 nM
T2 sequence (Q96PF2 1-358): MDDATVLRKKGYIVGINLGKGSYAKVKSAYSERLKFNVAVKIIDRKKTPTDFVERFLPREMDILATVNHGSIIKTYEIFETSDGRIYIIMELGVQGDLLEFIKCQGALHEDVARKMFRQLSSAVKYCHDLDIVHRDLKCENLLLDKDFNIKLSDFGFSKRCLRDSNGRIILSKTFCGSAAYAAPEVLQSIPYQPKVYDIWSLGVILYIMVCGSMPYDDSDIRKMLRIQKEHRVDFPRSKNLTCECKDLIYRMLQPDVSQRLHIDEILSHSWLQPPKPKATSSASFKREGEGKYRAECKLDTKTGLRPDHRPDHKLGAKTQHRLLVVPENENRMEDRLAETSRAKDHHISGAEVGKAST
Protocol: as §1

[6] = biological target: T3, PRKX (Homo sapiens, UniProt P51817); experiment: Kinome profiling PRKX; conditions: read-out: Inhibitory activity PRKX; for inhibition at 0.1 µM: 100 nM
T3 sequence (P51817 1-358): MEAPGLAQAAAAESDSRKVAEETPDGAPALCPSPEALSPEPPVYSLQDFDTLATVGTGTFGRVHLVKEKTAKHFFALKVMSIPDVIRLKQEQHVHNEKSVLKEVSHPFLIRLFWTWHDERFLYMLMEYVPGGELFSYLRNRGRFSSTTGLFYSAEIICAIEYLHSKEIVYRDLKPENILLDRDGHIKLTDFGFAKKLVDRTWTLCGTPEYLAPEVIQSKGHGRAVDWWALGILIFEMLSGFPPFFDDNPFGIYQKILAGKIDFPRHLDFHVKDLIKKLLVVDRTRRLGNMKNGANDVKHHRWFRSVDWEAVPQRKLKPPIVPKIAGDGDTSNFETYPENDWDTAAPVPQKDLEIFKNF
Protocol: as §1

[7] = biological target: T4, SPHK2 (Homo sapiens, UniProt Q9NRA0); experiment: Kinome profiling SPHK2; conditions: read-out: Inhibitory activity SPHK2; for inhibition at 0.1 µM: 100 nM
T4 sequence (Q9NRA0 1-654): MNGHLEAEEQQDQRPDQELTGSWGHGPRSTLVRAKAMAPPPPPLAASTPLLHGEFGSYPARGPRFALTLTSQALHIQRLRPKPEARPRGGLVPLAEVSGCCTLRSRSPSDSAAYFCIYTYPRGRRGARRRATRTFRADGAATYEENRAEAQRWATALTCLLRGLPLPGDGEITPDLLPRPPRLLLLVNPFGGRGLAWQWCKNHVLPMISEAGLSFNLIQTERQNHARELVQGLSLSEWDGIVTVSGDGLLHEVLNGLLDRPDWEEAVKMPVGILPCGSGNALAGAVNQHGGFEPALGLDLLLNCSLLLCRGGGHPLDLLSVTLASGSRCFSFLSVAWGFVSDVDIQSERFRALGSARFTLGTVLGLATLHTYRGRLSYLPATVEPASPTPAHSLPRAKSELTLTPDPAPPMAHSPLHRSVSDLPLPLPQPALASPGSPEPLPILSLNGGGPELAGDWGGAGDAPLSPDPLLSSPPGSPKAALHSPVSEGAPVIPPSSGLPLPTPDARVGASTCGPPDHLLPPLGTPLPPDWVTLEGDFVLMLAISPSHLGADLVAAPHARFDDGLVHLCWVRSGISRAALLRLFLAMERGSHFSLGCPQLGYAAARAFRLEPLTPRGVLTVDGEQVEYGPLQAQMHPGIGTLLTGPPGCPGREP
Protocol: as §1

Chain of SRMS (Q9H3Y6 whole entry): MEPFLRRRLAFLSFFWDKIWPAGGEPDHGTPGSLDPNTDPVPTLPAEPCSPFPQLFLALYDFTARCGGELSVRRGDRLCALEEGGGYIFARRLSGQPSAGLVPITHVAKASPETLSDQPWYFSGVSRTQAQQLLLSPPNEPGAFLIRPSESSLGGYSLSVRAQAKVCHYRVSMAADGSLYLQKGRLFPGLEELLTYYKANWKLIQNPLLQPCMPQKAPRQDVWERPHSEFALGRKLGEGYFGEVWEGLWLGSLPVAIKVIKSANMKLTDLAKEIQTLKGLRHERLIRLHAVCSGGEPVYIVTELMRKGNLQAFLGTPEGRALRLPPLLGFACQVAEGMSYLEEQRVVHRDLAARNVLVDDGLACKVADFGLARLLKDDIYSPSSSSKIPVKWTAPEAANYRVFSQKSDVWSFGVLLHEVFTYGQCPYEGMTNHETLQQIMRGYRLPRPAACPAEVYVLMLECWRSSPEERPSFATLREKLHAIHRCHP
Chain of IRR (P14616 27-1297): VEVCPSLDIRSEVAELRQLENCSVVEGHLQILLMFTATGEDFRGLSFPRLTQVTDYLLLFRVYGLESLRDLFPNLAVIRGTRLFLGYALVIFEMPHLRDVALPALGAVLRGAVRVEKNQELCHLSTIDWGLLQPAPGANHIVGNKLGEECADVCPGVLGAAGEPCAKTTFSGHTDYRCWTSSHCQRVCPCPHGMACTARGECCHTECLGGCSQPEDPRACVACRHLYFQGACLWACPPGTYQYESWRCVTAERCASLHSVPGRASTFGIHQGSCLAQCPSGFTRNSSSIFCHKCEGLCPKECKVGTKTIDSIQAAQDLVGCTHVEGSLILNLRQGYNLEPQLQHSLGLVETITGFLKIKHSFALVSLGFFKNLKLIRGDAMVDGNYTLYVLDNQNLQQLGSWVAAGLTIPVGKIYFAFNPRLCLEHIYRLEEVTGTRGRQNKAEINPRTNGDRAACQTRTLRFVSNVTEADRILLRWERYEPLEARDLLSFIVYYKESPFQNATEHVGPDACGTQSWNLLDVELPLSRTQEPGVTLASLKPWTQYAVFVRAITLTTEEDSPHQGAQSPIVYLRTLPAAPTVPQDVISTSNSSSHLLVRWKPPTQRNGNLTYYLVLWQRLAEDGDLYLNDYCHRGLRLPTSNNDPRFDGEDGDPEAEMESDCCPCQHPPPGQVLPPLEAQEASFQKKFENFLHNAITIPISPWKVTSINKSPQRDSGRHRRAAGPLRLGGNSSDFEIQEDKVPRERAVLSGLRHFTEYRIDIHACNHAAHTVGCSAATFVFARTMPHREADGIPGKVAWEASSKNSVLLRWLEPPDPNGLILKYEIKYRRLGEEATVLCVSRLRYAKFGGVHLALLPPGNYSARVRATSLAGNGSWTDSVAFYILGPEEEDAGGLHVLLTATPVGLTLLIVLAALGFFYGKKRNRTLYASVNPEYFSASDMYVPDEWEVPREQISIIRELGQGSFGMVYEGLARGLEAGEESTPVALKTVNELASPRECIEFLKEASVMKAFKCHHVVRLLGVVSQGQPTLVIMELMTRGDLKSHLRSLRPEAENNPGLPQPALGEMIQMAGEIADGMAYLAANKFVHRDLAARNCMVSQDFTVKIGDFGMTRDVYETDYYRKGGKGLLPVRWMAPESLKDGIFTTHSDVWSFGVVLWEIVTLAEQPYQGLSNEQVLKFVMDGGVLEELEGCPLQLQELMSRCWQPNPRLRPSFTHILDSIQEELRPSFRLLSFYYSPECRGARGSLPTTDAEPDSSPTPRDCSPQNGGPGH
Chain of CDK6/cyclinD3 (Q00534 whole entry): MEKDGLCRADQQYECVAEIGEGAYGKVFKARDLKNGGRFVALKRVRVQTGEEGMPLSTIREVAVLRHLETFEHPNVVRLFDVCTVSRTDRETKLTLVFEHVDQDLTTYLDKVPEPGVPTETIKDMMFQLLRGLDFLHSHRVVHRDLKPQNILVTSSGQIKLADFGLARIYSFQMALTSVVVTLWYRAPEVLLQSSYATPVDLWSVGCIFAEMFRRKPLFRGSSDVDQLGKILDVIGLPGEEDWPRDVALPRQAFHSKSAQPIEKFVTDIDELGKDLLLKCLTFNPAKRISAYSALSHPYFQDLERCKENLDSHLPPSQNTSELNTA
Chain of CDK6/cyclinD3 (P30281 whole entry partner): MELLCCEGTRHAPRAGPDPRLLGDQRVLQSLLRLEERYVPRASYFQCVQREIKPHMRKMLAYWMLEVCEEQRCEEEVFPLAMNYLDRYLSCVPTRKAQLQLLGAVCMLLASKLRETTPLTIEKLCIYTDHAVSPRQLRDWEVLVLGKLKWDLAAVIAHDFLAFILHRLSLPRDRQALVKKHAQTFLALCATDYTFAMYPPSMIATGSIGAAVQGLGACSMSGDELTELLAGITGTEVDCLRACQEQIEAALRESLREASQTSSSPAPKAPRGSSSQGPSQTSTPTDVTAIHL

SMILES	inhibition at 0.1 µM [1]	inhibition at 1 µM [1]	inhibition at 0.1 µM [2]	inhibition at 1 µM [2]	inhibition at 0.1 µM [3]	inhibition at 1 µM [3]	inhibition at 0.1 µM [4]	inhibition at 1 µM [4]	inhibition at 0.1 µM [5]	inhibition at 1 µM [5]	inhibition at 0.1 µM [6]	inhibition at 1 µM [6]	inhibition at 0.1 µM [7]	inhibition at 1 µM [7]
COc1cc(-c2cc(-c3ccc(N4CCNCC4)cc3)cnc2N)cc(OC)c1OC [Compound 15, 5-(4-(piperazin-1-yl)phenyl)-3-(3,4,5-trimethoxyphenyl)pyridin-2-amine]	30%	76%	11%	33%	3%	6%	3%	3%	1%	1%	1%	0%	6%	-6%
COc1cc(-c2cc(-c3ccc(N4CCNCC4)cc3)cnc2C)cc(OC)c1OC [Compound 10, 1-(4-(6-methyl-5-(3,4,5-trimethoxyphenyl)pyridin-3-yl)phenyl)piperazine]	8%	36%	0%	1%	3%	1%	2%	1%	4%	4%	0%	1%	13%	5%
